Experimental data as given in US20040214237A1, “DNA encoding SNORF138 and uses thereof” (Synaptic Pharmaceutical Corporation, priority 2002, published 2004).

Legend:
[1] = target: T1, hSN138 (human SNORF138 receptor) (Homo sapiens, UniProt Q8TDU6); test: Activation of CFTR currents in Xenopus oocytes expressing both hSN138 and CFTR (dual electrode voltage clamp); assay type: cell-based; parameters: dose or concentration left out as unconfirmed; settings: betamethasone valerate, bullet application, holding potential -80 mV, n=8
T1 construct: expressed in transfected cells; host or cells: Xenopus laevis oocytes (cytoplasmic injection of T3-driven cDNA with T3 RNA polymerase)
T1 sequence (Q8TDU6 1-330): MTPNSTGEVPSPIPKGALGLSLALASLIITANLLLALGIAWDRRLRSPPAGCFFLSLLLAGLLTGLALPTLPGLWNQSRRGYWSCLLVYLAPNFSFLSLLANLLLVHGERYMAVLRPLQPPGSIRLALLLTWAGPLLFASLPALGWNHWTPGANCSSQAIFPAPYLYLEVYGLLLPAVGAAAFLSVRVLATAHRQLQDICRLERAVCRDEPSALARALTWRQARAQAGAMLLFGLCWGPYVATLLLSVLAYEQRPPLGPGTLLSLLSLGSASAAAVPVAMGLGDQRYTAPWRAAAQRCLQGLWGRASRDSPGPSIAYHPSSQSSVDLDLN
Protocol: Oocytes were injected with a cocktail of T3-driven hSN138 cDNA, T3-RNA polymerase and dNTP with or without T3-driven CFTR cDNA directly into the cytoplasm as previously described (Geib et al., 2001). After 2 days of incubation at 15° C., dual electrode voltage clamp was performed using 3 M KCl-filled glass microelectrodes with resistances of 1-2 MΩ. Unless otherwise specified, oocytes were voltage-clamped at a holding potential of −80 mV. During recordings, oocytes were bathed in continuously flowing (1-3 ml/min) medium containing 96 mM NaCl, 2 mM KCl, 1.8 mM CaCl2, and 5 mM HEPES, pH 7.5 (ND96 Buffer). Drugs were applied by local perfusion from a 10 ml glass capillary tube at a distance of 0.5 mm from the oocyte. […] CFTR channel activity is heavily regulated by the cytosolic levels of cyclic AMP which can be increased by activation of GS-coupled adenylyl cyclase (AC). Therefore, activation of GS-coupled AC pathway is assayed by applying test compound in ND96 solution to oocytes and observing the changes of inward CFTR currents at a holding potential of −80 mV.

[2] = test system: CFTR; test: CFTR currents in Xenopus oocytes expressing CFTR alone (control without receptor); assay type: cell-based; parameters: dose or concentration left out as unconfirmed; settings: betamethasone valerate, bullet application, n=4
Protocol: In the present invention, oocytes are harvested from Xenopus laevis as previously described (Quick and Lester, 1994; Smith et al., 1997). Oocytes were injected with a cocktail of T3-driven hSN138 cDNA, T3-RNA polymerase and dNTP with or without T3-driven CFTR cDNA directly into the cytoplasm as previously described (Geib et al., 2001). After 2 days of incubation at 15° C., dual electrode voltage clamp was performed using 3 M KCl-filled glass microelectrodes with resistances of 1-2 MΩ. Unless otherwise specified, oocytes were voltage-clamped at a holding potential of −80 mV. During recordings, oocytes were bathed in continuously flowing (1-3 ml/min) medium containing 96 mM NaCl, 2 mM KCl, 1.8 mM CaCl2, and 5 mM HEPES, pH 7.5 (ND96 Buffer). Drugs were applied by local perfusion from a […] glass capillary tube at a distance of 0.5 mm from the oocyte. Heterologous expression of GPCRs in Xenopus oocytes has been widely used to determine the identity of signaling pathways activated by agonist stimulation. CFTR channel activity is heavily regulated by the cytosolic levels of cyclic AMP which can be increased by activation of GS-coupled adenylyl cyclase (AC). Therefore, activation of GS-coupled AC pathway is assayed by applying test compound in ND96 solution to oocytes and observing the changes of inward CFTR currents at a holding potential of −80 mV.

increase of CFTR currents [1]: 9.2±1.9 nA
changes in CFTR currents [2]: no significant changes
Compound: CCCCC(=O)O[C@]1(C(=O)CO)[C@@H](C)C[C@H]2[C@@H]3CCC4=CC(=O)C=C[C@]4(C)[C@@]3(F)[C@@H](O)C[C@@]21C [betamethasone valerate, fluoro-11b,17,21-trihydroxy-16b-methylpregna-1,4-diene-3,20-dione 17-valerate]
